{"source": "patent US6946492B2", "about": "“Use of C2-substituted indan-1-one systems for preparing medicaments for the treatment of obesity” (Aventis Pharma Deutschland GmbH, priority 2001, dated 2005)", "key": {"female NMRI mice": {"test_system": "female NMRI mice", "test": "Anorectic action: cumulative milk consumption after removal of feed for 24 hours", "assay_type": "in vivo", "conditions": "for cumulative milk consumption by treated animals: evaporated milk, monitored for 7 hours; for Reduction in cumulative milk consumption as % of the contol: vs control animals", "procedure": "The anorectic action was tested on female NMRI mice. After removal of feed for 24 hours, the preparation to be tested was administered intraperitoneally (ip) or by gavage (po). The animals were housed singly and, with free access to drinking water, they were offered evaporated milk 30 minutes after administration of the preparation. The consumption of evaporated milk was determined and the general behavior of the animals was monitored every half an hour for 7 hours. The measured milk consumption was compared to that of vehicle-treated control animals."}}}
{"smiles": "CSC1Cc2cc(Cl)ccc2C1=O", "note": "(stereo not shown) [Example 1, 5-Chloro-2-methylsulfanylindan-1-one]", "values": [{"measurement": "cumulative milk consumption by treated animals", "setting": "female NMRI mice; 10 mg/kg ip", "value": "05/1.20 ml"}, {"measurement": "Reduction in cumulative milk consumption as % of the contol", "setting": "female NMRI mice; 10 mg/kg ip", "value": 64, "unit": "%"}, {"measurement": "melting point", "value": 90, "unit": "°C"}]}
{"smiles": "CS(=O)(=O)C1Cc2cc(Cl)ccc2C1=O", "note": "(stereo not shown) [Example 2, 5-Chloro-2-methanesulfonylindan-1-one]", "values": [{"measurement": "cumulative milk consumption by treated animals", "setting": "female NMRI mice; 20 mg/kg ip", "value": "05/1.16 ml"}, {"measurement": "Reduction in cumulative milk consumption as % of the contol", "setting": "female NMRI mice; 20 mg/kg ip", "value": 70, "unit": "%"}]}
{"smiles": "O=C1c2ccc(Cl)cc2CC1Sc1ccccc1", "note": "(stereo not shown) [Example 3, 5-chloro-2-phenylsulfanylindan-1-one]", "values": [{"measurement": "melting point", "value": 89, "unit": "°C"}]}
{"smiles": "O=C1c2ccc(Cl)cc2CC1S(=O)(=O)c1ccccc1", "note": "(stereo not shown) [Example 4, 2-benzenesulfonyl-5-chloroindan-1-one]", "values": [{"measurement": "melting point", "value": 133, "unit": "°C"}]}
{"smiles": "C[S+]([O-])C1Cc2cc(Cl)ccc2C1=O", "note": "(stereo not shown) [Example 9, 5-chloro-2-methanesulfinylindan-1-one]", "values": [{"measurement": "cumulative milk consumption by treated animals", "setting": "female NMRI mice; 50 mg/kg po", "value": "05/1.16 ml"}, {"measurement": "Reduction in cumulative milk consumption as % of the contol", "setting": "female NMRI mice; 50 mg/kg po", "value": 73, "unit": "%"}, {"measurement": "melting point", "value": 228.87, "unit": "°C"}]}
